Series [1] relates to HK-2. As to the kind of experiment: Anti-fibrotic activity in TGFbeta-1-treated HK-2 cells assessed as Col4A1 mRNA level at 10 uM incubated for 24 to 48 hrs by qPCR analysis (reference value: 2.54 +/- 0.24). It counts as functional, Homo sapiens. The note with it: time 24-48 hrs. For orientation: In qPCR the cycle at which signal appears reflects the starting amount.
The test system of series [2] is HK-2. As to the kind of experiment: Anti-fibrotic activity in TGFbeta-1-treated HK-2 cells assessed as vimentin mRNA level at 10 uM incubated for 24 to 48 hrs by qPCR analysis (reference value: 3.73 +/- 0.47). It counts as functional, Homo sapiens. The conditions noted are these: time 24-48 hrs.
Series [3] relates to HK-2. The series is described as follows: Anti-fibrotic activity in TGFbeta-1-treated HK-2 cells assessed as fibronectin mRNA level at 10 uM incubated for 24 to 48 hrs by qPCR analysis (reference value: 11.31 +/- 2.49). The class given is functional, Homo sapiens. The note with it: time 24-48 hrs.
For series [4], the system named is HK-2. The series is described as follows: Anti-fibrotic activity in TGFbeta-1-treated HK-2 cells assessed as decrease in fibronectin level at 5 to 10 uM incubated for 24 to 48 hrs by Western blot analysis. It counts as functional, cell-based. The conditions noted are these: Homo sapiens, dose 5-10 µM, time 24-48 hrs. On the technique in general: A western blot detects proteins with antibodies after separation by electrophoresis.

The subject of series [5] is HK-2. As to the kind of experiment: Anti-fibrotic activity in TGFbeta-1-treated HK-2 cells assessed as decrease in alpha-SMA level at 1 uM incubated for 24 to 48 hrs by Western blot analysis. The class given is functional, cell-based. The note with it: Homo sapiens, time 24-48 hrs.
Series [6] concerns HK-2. As to the kind of experiment: Anti-fibrotic activity in TGFbeta-1-treated HK-2 cells assessed as Col4A1 mRNA level at 10 uM incubated for 24 to 48 hrs by qPCR analysis (reference value: 2.35 +/- 0.38). The note with it: time 24-48 hrs. It counts as functional, Homo sapiens.
Series [7] deals with HK-2. As to the kind of experiment: Anti-fibrotic activity in TGFbeta-1-treated HK-2 cells assessed as vimentin mRNA level at 10 uM incubated for 24 to 48 hrs by qPCR analysis (reference value: 1.88 +/- 0.48). It counts as functional, Homo sapiens. The conditions noted are these: time 24-48 hrs.
Series [8] concerns HK-2. As to the kind of experiment: Anti-fibrotic activity in TGFbeta-1-treated HK-2 cells assessed as fibronectin mRNA level at 10 uM incubated for 24 to 48 hrs by qPCR analysis (reference value: 6.88). The class given is functional, Homo sapiens. The conditions noted are these: time 24-48 hrs.
In series [9] the test system is HK-2. As to the kind of experiment: Anti-fibrotic activity in TGFbeta-1-treated HK-2 cells assessed as decrease in Col4A1 level at 1 uM incubated for 24 to 48 hrs by Western blot analysis. It counts as functional, cell-based. The note with it: Homo sapiens, time 24-48 hrs.
Series [10] deals with HK-2. The series is described as follows: Anti-fibrotic activity in TGFbeta-1-treated HK-2 cells assessed as decrease in vimentin level at 1 uM incubated for 24 to 48 hrs by Western blot analysis. The class given is functional, cell-based. The note with it: Homo sapiens, time 24-48 hrs.
Series [11] concerns HK-2. The series is described as follows: Anti-fibrotic activity in TGFbeta-1-treated HK-2 cells assessed as decrease in fibronectin level at 1 uM incubated for 24 to 48 hrs by Western blot analysis. The class given is functional, cell-based. The note with it: Homo sapiens, time 24-48 hrs.
The subject of series [12] is HK-2. As to the kind of experiment: Cytotoxicity against TGFbeta-1-treated HK-2 cells assessed as decrease in cell viability at 1 to 5 uM incubated for 48 hrs by Cell Titer-Glo assay. The class given is toxicity, cell-based. The conditions noted are these: human, hk-2, 48 h, dose 1-5 µM. For orientation: Cellular ATP, detected with luciferase, serves as a proxy for viable cell number.

The nature of series [13]: Cytotoxicity against TGFbeta-1-treated HK-2 cells assessed as cell viability at 10 uM incubated for 48 hrs by Cell Titer-Glo assay (Rvb ~ 80 %). It counts as toxicity, cell-based. The conditions noted are these: human, read-out: Activity.
Series [14] deals with HK-2. As to the kind of experiment: Anti-fibrotic activity in HK-2 cell model of 10 ng/ml TGFbeta-1-induced fibrosis injury assessed as Col4A1 mRNA level at 10 uM incubated for 24 to 48 hrs by qPCR analysis (reference value: 2.44 +/- 0.21). The class given is functional, Homo sapiens. The note with it: time 24-48 hrs.
Series [15] deals with HK-2. As to the kind of experiment: Anti-fibrotic activity in HK-2 cell model of 10 ng/ml TGFbeta-1-induced fibrosis injury assessed as Col4A1 mRNA level at 20 uM incubated for 24 to 48 hrs by qPCR analysis (reference value: 2.44 +/- 0.21). It counts as functional, Homo sapiens. The note with it: time 24-48 hrs.
Series [16] concerns HK-2. The series is described as follows: Anti-fibrotic activity in HK-2 cell model of 20 ng/ml TGFbeta-1-induced fibrosis injury assessed as Col4A1 mRNA level at 10 uM incubated for 24 to 48 hrs by qPCR analysis (reference value: 8.96 +/- 0.96). The class given is functional, Homo sapiens. The conditions noted are these: time 24-48 hrs.
In series [17] the test system is HK-2. The series is described as follows: Anti-fibrotic activity in HK-2 cell model of 20 ng/ml TGFbeta-1-induced fibrosis injury assessed as Col4A1 mRNA level at 20 uM incubated for 24 to 48 hrs by qPCR analysis (reference value: 8.96 +/- 0.96). It counts as functional, Homo sapiens. The note with it: time 24-48 hrs.
For series [18], the system named is HK-2. The series is described as follows: Anti-fibrotic activity in HK-2 cell model of 10 ng/ml TGFbeta-1-induced fibrosis injury assessed as vimentin mRNA level at 10 uM incubated for 24 to 48 hrs by qPCR analysis (reference value: 1.41 +/- 0.1). The conditions noted are these: time 24-48 hrs. It counts as functional, Homo sapiens.
The test system of series [19] is HK-2. As to the kind of experiment: Anti-fibrotic activity in HK-2 cell model of 10 ng/ml TGFbeta-1-induced fibrosis injury assessed as vimentin mRNA level at 20 uM incubated for 24 to 48 hrs by qPCR analysis (reference value: 1.41 +/- 0.1). The conditions noted are these: time 24-48 hrs. It counts as functional, Homo sapiens.
Series [20] concerns HK-2. The series is described as follows: Anti-fibrotic activity in HK-2 cell model of 20 ng/ml TGFbeta-1-induced fibrosis injury assessed as vimentin mRNA level at 10 uM incubated for 24 to 48 hrs by qPCR analysis (reference value: 3.19 +/- 0.23). The class given is functional, Homo sapiens. The conditions noted are these: time 24-48 hrs.
The test system of series [21] is HK-2. As to the kind of experiment: Anti-fibrotic activity in HK-2 cell model of 20 ng/ml TGFbeta-1-induced fibrosis injury assessed as vimentin mRNA level at 20 uM incubated for 24 to 48 hrs by qPCR analysis (reference value: 3.19 +/- 0.23). It counts as functional, Homo sapiens. The note with it: time 24-48 hrs.
Series [22] deals with HK-2. The series is described as follows: Anti-fibrotic activity in TGFbeta-1-treated HK-2 cells assessed as Col4A1 mRNA level at 10 uM incubated for 24 to 48 hrs by qPCR analysis (reference value: 2.81 +/- 0.22). The class given is functional, Homo sapiens. The note with it: time 24-48 hrs.
The test system of series [23] is HK-2. The series is described as follows: Anti-fibrotic activity in TGFbeta-1-treated HK-2 cells assessed as vimentin mRNA level at 10 uM incubated for 24 to 48 hrs by qPCR analysis (reference value: 2.2 +/- 0.28). It counts as functional, Homo sapiens. The conditions noted are these: time 24-48 hrs.
Series [24] concerns HK-2. As to the kind of experiment: Anti-fibrotic activity in TGFbeta-1-treated HK-2 cells assessed as fibronectin mRNA level at 10 uM incubated for 24 to 48 hrs by qPCR analysis (reference value: 2.16 +/- 0.31). The class given is functional, Homo sapiens. The note with it: time 24-48 hrs.
The subject of series [25] is HK-2. As to the kind of experiment: Anti-fibrotic activity in TGFbeta-1-treated HK-2 cells assessed as decrease in Col4A1 mRNA level at 10 uM incubated for 24 to 48 hrs by qPCR analysis relative to control. Details: scale not given: the % may be the effect or the level left. It counts as functional, Homo sapiens. The note with it: time 24-48 hrs.
Series [26] relates to HK-2. The series is described as follows: Anti-fibrotic activity in TGFbeta-1-treated HK-2 cells assessed as decrease in vimentin mRNA level at 10 uM incubated for 24 to 48 hrs by qPCR analysis relative to control. The note with it: time 24-48 hrs. The class given is functional, Homo sapiens. Details: scale not given: the % may be the effect or the level left.
For series [27], the system named is HK-2. The series is described as follows: Anti-fibrotic activity in TGFbeta-1-treated HK-2 cells assessed as decrease in fibronectin mRNA level at 10 uM incubated for 24 to 48 hrs by qPCR analysis relative to control. It counts as functional, Homo sapiens. Details: scale not given: the % may be the effect or the level left. The note with it: time 24-48 hrs.
Series [28] concerns HK-2. The series is described as follows: Anti-fibrotic activity in TGFbeta-1-treated HK-2 cells assessed as decrease in vimentin level at 1 to 10 uM incubated for 24 to 48 hrs by Western blot analysis. It counts as functional, cell-based. The conditions noted are these: Homo sapiens, dose 1-10 µM, time 24-48 hrs.
In series [29] the test system is HK-2. The series is described as follows: Anti-fibrotic activity in TGFbeta-1-treated HK-2 cells assessed as decrease in alpha-SMA level at 5 to 10 uM incubated for 24 to 48 hrs by Western blot analysis. The class given is functional, cell-based. The conditions noted are these: Homo sapiens, dose 5-10 µM, time 24-48 hrs.

Molecules are shown by their SMILES. Calls of active or inactive are those of the source. The calls are words filed in the database; no cut-off is given here.

Regarding `CC(C)=CCC[C@]1(C)Oc2ccc(O)cc2C2=CC(=O)CC[C@H]21` (racemic), the results for the Activity in the series with HK-2 [1], with HK-2 [2] and in the series on HK-2 [3] were 0.6, 0.93 and 0.39, respectively. The outcome with HK-2 [4] and with HK-2 [5] was Active.

Consider `CC(C)=CCCC1(C)Oc2ccc(O)cc2-c2cc(O)ccc21` (racemic), for which the Activity with HK-2 [6] is 0.66; in the series with HK-2 [7], 0.65; in the series on HK-2 [8] it was 1; in the series on HK-2 [12] it was “Non-toxic”; with HK-2 [14], 0.74; in the series with HK-2 [15], 0.11. Also, the Activity in the series on HK-2 [16] is listed as 4.08; in the series with HK-2 [17] it was 1.21; in the series with HK-2 [18], 0.54; with HK-2 [19], 0.24; in the series with HK-2 [20] it was 1.44; with HK-2 [21], 0.5. For the same compound, the outcome in the series with HK-2 [9], in the series with HK-2 [10] and in the series on HK-2 [11] was Active. Moreover, in series [13], the viability at 48 h, 10 µM amounted to 70%.

With `CC(C)=CCC[C@]1(C)Oc2ccc(O)cc2C2=CC(=O)CC[C@@H]21` (racemic), the Activity in the series on HK-2 [22] was 1.1; in the series with HK-2 [23], 1.22; in the series on HK-2 [24], 0.6; in the series on HK-2 [25] it was “<=50%”; in the series on HK-2 [26], “<=50%”; in the series on HK-2 [27] it was “<=50%”. Further, the outcome with HK-2 [28] and in the series on HK-2 [29] was Active.

For the origin of these results see ChEMBL document CHEMBL6074713, “Chemical Synthesis and Antifibrotic Properties of (±)-Cochlearol T, (±)-Ganocochlearin A, and (±)-Cochlearol Y” (ACS Med Chem Lett, 2024).
